Experimental data from patent publication US12156880B2, “Heterocyclic RIP1 kinase inhibitors” (Rigel Pharmaceuticals, Inc., priority 2021, dated 2024).

Experiments:
RIPK1 = target: T1, RIPK1 (Homo sapiens, UniProt Q13546); experiment: RIPK1 ADP-Glo biochemical kinase assay; conditions: read-out: RIPK1 ADP-Glo Kinase (IC50)
T1 sequence (Q13546 1-671): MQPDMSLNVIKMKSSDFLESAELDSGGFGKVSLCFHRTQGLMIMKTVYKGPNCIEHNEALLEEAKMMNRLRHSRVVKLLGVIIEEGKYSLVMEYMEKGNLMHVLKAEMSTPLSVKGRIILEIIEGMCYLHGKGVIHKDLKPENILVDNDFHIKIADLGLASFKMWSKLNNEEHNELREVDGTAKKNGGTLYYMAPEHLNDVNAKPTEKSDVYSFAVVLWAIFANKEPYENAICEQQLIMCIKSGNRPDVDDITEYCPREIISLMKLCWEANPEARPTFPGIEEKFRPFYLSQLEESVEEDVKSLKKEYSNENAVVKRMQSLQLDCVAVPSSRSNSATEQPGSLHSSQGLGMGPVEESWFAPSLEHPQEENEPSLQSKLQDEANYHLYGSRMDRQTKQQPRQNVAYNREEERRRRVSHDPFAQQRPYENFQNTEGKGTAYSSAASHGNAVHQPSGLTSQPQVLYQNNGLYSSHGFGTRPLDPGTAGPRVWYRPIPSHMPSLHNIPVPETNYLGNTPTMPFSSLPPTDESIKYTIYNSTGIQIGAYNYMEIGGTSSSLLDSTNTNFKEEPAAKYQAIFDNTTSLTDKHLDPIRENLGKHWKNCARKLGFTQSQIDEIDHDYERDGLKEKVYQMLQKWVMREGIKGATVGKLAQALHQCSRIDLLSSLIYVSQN
Method in brief: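 RIPK1 at 31 ng/well in Tris pH 7.4 buffer with MgCl2, BSA, DTT and MnCl2, reacted with compounds (duplicate) for 30 min at 30 °C. ADP formed detected by ADP-Glo: 40 min stop/depletion, then 30 min detection reagent at room temperature; luminescence read.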

L929 cells = experiment: L929 cell necroptosis assay (TNFa + zVAD, CellTiter-Glo recovery); assay type: cell-based, murine; conditions: Mus musculus, L929, 18 h, TNFa 2 ng/mL + zVAD-fmk, read-out: L929-CTG-recovery, L929, TNFa + zVAD (IC50)
Method in brief: (§1)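 Human U937 (50K/well, 60 uM zVAD-fmk medium, plated same day) or murine L929 (10K/well, plated 18 h, then 40 uM zVAD-fmk medium) were grown in RPMI with 10% FBS. Both were pretreated with compound for 1 h at 37 °C before TNFa at 2 ng/mL final. Viability was read by CellTiter-Glo luminescence after 18 h.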

U937 cells = experiment: U937 cell necroptosis assay (TNFa + zVAD, CellTiter-Glo recovery); assay type: cell-based; conditions: Homo sapiens, U-937, 18 h, TNFa 2 ng/mL + zVAD-fmk, read-out: U937 Zvad TNF CTG Recovery, U937, TNFa + zVAD (IC50)
Method in brief: as §1

Row | IC50 (RIPK1) [nM] | SMILES | IC50 (L929 cells) [nM] | IC50 (U937 cells) [nM]
1 | 16.8 | CN1C(=O)[C@@H](NC(=O)c2cc(Oc3cccnc3F)ccn2)COc2ccc(C#CC(C)(C)O)cc21 [I-54, (S)-4-((2-fluoropyridin-3-yl)oxy)-N-(7-(3-hydroxy-3-methylbut-1-yn-1-yl)-5-methyl-4-oxo-2,3,4,5-tetrahydrobenzo[b][1,4]oxazepin-3-yl)picolinamide] | 573 | 7.1
2 | 44.9 | CN1C(=O)[C@@H](NC(=O)c2cc(Cn3cccn3)ccn2)COc2ccc(C#CC3(O)COC3)cc21 [I-70, (S)-4-((1H-pyrazol-1-yl)methyl)-N-(7-((3-hydroxyoxetan-3-yl)ethynyl)-5-methyl-4-oxo-2,3,4,5-tetrahydrobenzo[b][1,4]oxazepin-3-yl)picolinamide] | 2640 | 281
3 | 101 | CN1C(=O)[C@@H](NC(=O)c2cc(Oc3cccnc3C#N)ccn2)COc2ccc(C#CC(C)(C)O)cc21 [I-91, (S)-4-((2-cyanopyridin-3-yl)oxy)-N-(7-(3-hydroxy-3-methylbut-1-yn-1-yl)-5-methyl-4-oxo-2,3,4,5-tetrahydrobenzo[b][1,4]oxazepin-3-yl)picolinamide] | 9530 | 290
4 | 30.7 | CN1C(=O)[C@@H](NC(=O)c2cc(Cc3ccccn3)ccn2)COc2ccc(C#CC3(O)COC3)cc21 [I-64, (S)—N-(7-((3-hydroxyoxetan-3-yl)ethynyl)-5-methyl-4-oxo-2,3,4,5-tetrahydrobenzo[b][1,4]oxazepin-3-yl)-4-(pyridin-2-ylmethyl)picolinamide] | 767 | 67.9
5 | 88 | CN1C(=O)[C@@H](NC(=O)n2cc(Cc3cccc(F)n3)cn2)COc2ccc(C#CC3COC3)cc21 [I-108, (S)-4-((6-Fluoropyridin-2-yl)methyl)-N-(5-methyl-7-(oxetan-3-ylethynyl)-4-oxo-2,3,4,5-tetrahydrobenzo[b][1,4]oxazepin-3-yl)-1H-pyrazole-1-carboxamide] | 2090 | 12.8
6 | 27.6 | Cc1ccc(Cc2ccnc(C(=O)N[C@H]3COc4ccc(C#CC5(O)COC5)cc4N(C)C3=O)c2)cn1 [I-73, (S)—N-(7-((3-hydroxyoxetan-3-yl)ethynyl)-5-methyl-4-oxo-2,3,4,5-tetrahydrobenzo[b][1,4]oxazepin-3-yl)-4-((6-methylpyridin-3-yl)methyl)picolinamide] | 1950 | 91.7
7 | 53.8 | CN1C(=O)[C@@H](NC(=O)n2cc(Cc3cccc(F)n3)cn2)COc2ccc(C#CC(C)(C)C3CCOCC3)cc21 [I-107, (S)-4-((6-Fluoropyridin-2-yl)methyl)-N-(5-methyl-7-(3-methyl-3-(tetrahydro-2H-pyran-4-yl)but-1-yn-1-yl)-4-oxo-2,3,4,5-tetrahydrobenzo[b][1,4]oxazepin-3-yl)-1H-pyrazole-1-carboxamide] | 307 | 2
8 | 396 | Cc1nc(Cc2ccnc(C(=O)N[C@H]3COc4ccc(C#CC(C)(C)C)cc4N(C)C3=O)c2)cs1 [I-96, (S)—N-(7-(3,3-dimethylbut-1-yn-1-yl)-5-methyl-4-oxo-2,3,4,5-tetrahydrobenzo[b][1,4]oxazepin-3-yl)-4-((2-methylthiazol-4-yl)methyl)picolinamide] | 242 | 84.2
9 | 23.4 | CN1C(=O)[C@@H](NC(=O)c2cc(Oc3cccnc3F)ccn2)COc2ccc(C#CC3CCOCC3)cc21 [I-125, (S)-4-((2-fluoropyridin-3-yl)oxy)-N-(5-methyl-4-oxo-7-((tetrahydro-2H-pyran-4-yl)ethynyl)-2,3,4,5-tetrahydrobenzo[b][1,4]oxazepin-3-yl)picolinamide] | 11.5 | 0.9
10 | 28 | CN1C(=O)[C@@H](NC(=O)c2cc(Oc3cncc(F)c3)ccn2)COc2ccc(C#CC3(O)CCC3)cc21 [I-100, (S)-4-((5-fluoropyridin-3-yl)oxy)-N-(7-((1-hydroxycyclobutyl)ethynyl)-5-methyl-4-oxo-2,3,4,5-tetrahydrobenzo[b][1,4]oxazepin-3-yl)picolinamide] | 1100 | 4.1
11 | 35.1 | CN1C(=O)[C@@H](NC(=O)c2cc(Cc3cccc(F)n3)ccn2)COc2ccc(C#CC3CCOCC3)cc21 [I-53, (S)-4-((6-fluoropyridin-2-yl)methyl)-N-(5-methyl-4-oxo-7-((tetrahydro-2H-pyran-4-yl)ethynyl)-2,3,4,5-tetrahydrobenzo[b][1,4]oxazepin-3-yl)picolinamide] | 114 | 3
12 | 18.1 | Cc1nc(Cc2ccnc(C(=O)N[C@H]3COc4ccc(C#CC(C)(C)O)cc4N(C)C3=O)c2)cs1 [I-65, (S)—N-(7-(3-hydroxy-3-methylbut-1-yn-1-yl)-5-methyl-4-oxo-2,3,4,5-tetrahydrobenzo[b][1,4]oxazepin-3-yl)-4-((2-methylthiazol-4-yl)methyl)picolinamide] | 76.3 | 43.4
13 | 56.3 | CN1C(=O)[C@@H](NC(=O)c2cc(Oc3cccnc3C(F)(F)F)ccn2)COc2ccc(C#CC3(O)COC3)cc21 [I-88, (S)—N-(7-((3-hydroxyoxetan-3-yl)ethynyl)-5-methyl-4-oxo-2,3,4,5-tetrahydrobenzo[b][1,4]oxazepin-3-yl)-4-((2-(trifluoromethyl)pyridin-3-yl)oxy)picolinamide] | 10600 | 133

Row | SMILES | IC50 (RIPK1) [nM] | IC50 (L929 cells) [nM] | IC50 (U937 cells) [nM]
14 | CN1C(=O)[C@@H](NC(=O)n2cc(Cc3cccnc3F)cn2)COc2ccc(C#CC3CCOCC3)cc21 [I-45, (S)-4-((2-Fluoropyridin-3-yl)methyl)-N-(5-methyl-4-oxo-7-((tetrahydro-2H-pyran-4-yl)ethynyl)-2,3,4,5-tetrahydrobenzo[b][1,4]oxazepin-3-yl)-1H-pyrazole-1-carboxamide] | 45 | 512 | 5.2
15 | Cc1cccc(Cc2ccnc(C(=O)N[C@H]3COc4ccc(C#CC5(O)COC5)cc4N(C)C3=O)c2)n1 [I-12, (S)—N-(7-((3-hydroxyoxetan-3-yl)ethynyl)-5-methyl-4-oxo-2,3,4,5-tetrahydrobenzo[b][1,4]oxazepin-3-yl)-4-((6-methylpyridin-2-yl)methyl)picolinamide] | 25.2 | 3470 | 73.4
16 | CN1C(=O)[C@@H](NC(=O)n2cc(Cc3cccc(C(F)(F)F)n3)cn2)COc2ccc(C#CC(C)(C)O)cc21 [I-9, (S)—N-(7-(3-Hydroxy-3-methylbut-1-yn-1-yl)-5-methyl-4-oxo-2,3,4,5-tetrahydrobenzo[b][1,4]oxazepin-3-yl)-4-((6-(trifluoromethyl)pyridin-2-yl)methyl)-1H-pyrazole-1-carboxamide] | 64.3 | 2690 | 163
17 | CN1C(=O)[C@@H](NC(=O)n2cc(Cc3ccc(F)nc3F)cn2)COc2ccc(C#CC(C)(C)O)cc21 [I-50, (S)-4-((2,6-Difluoropyridin-3-yl)methyl)-N-(7-(3-hydroxy-3-methylbut-1-yn-1-yl)-5-methyl-4-oxo-2,3,4,5-tetrahydrobenzo[b][1,4]oxazepin-3-yl)-1H-pyrazole-1-carboxamide] | 181 | 17600 | 62.3
